Data on 14 compounds can be found in US10160755B2 (Plexxikon Inc., priority 2015, dated 2018).

For the assay, the target named is T1, BA/F3-FLT3-ITD + F691L cells (Homo sapiens, UniProt P36888, F691L, cells depend on it, form not given).
T1 sequence (P36888 1-993 F691L): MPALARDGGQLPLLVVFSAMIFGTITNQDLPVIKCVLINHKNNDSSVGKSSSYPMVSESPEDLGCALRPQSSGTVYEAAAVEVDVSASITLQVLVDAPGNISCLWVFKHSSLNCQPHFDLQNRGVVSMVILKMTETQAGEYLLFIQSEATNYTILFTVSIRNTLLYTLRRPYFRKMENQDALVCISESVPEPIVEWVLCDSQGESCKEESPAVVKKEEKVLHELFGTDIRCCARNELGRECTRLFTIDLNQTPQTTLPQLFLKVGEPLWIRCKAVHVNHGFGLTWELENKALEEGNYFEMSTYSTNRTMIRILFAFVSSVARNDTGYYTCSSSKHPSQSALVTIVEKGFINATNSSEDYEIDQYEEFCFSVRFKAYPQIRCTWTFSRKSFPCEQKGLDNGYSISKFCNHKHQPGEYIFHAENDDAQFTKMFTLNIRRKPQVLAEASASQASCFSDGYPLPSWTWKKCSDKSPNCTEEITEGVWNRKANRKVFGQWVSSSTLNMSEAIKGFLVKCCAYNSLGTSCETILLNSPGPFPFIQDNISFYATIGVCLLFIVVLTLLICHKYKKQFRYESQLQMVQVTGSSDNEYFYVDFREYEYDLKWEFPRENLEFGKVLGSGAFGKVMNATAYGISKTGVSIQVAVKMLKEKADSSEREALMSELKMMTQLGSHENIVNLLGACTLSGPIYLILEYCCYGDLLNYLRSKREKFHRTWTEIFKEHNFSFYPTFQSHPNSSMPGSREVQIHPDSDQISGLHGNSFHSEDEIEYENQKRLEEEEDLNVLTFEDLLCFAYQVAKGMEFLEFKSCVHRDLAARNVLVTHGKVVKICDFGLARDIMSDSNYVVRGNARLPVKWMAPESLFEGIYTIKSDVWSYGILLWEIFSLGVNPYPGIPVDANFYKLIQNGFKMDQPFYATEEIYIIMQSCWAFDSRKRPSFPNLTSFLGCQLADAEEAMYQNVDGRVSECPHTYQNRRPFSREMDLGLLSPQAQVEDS
Briefly: BA/F3-FLT3-ITD + F691L cell proliferation assay (CellTiter-Glo). In kind it is cell-based, murine. As to conditions: BaF3 FLT3 ITD/F691L cells; read-out: Cell Activity (IC50 μM) BaF3_FLT3_ITD/F691L. In outline: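 Murine BA/F3 cells transfected with full-length FLT3 carrying ITD plus D835Y or F691L, grown without IL-3 so growth depends on FLT3. Seeded at 1×10^4 cells/well and dosed with 8 points, 10 to 0.0046 μM, 0.2% DMSO, for three days at 37 °C. IC50 from CellTiter-Glo luminescence (ATP content).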
(In general: In ATP-based viability assays light output follows the ATP content of the culture.)

As for `O=S(=O)(c1cccc(-c2cnc3[nH]cc(-c4ccc5ncn(C6CCCNC6)c5c4)c3c2)c1)N1CCCC1` (centres unmarked) [P-222, 1-(3-piperidyl)-6-[5-(3-pyrrolidin-1-ylsulfonylphenyl)-1H-pyrrolo[2,3-b]pyridin-3-yl]benzimidazole], the GI50 was in the range of 0.0001 to 1 µM.

Take `CC(C)(C)n1cnc2ccc(-c3c[nH]c4ncc(-c5cccc(N6CCCCS6(=O)=O)c5)nc34)cc21` [P-227, 2-[3-[7-(3-tert-butylbenzimidazol-5-yl)-5H-pyrrolo[2,3-b]pyrazin-2-yl]phenyl]thiazinane 1,1-dioxide]: the GI50 lay within 0.0001 to 1 µM.

For `CC(C)(C)n1cnc2ccc(-c3c[nH]c4ncc(-c5cccc(NS(C)(=O)=O)c5)nc34)cc21` [P-097, N-[3-[7-(3-tert-butylbenzimidazol-5-yl)-5H-pyrrolo[2,3-b]pyrazin-2-yl]phenyl]methanesulfonamide], the GI50 lay within 0.0001 to 1 µM.

As to `COc1cnc2[nH]cc(-c3ccc4ncn(-c5ccc(F)cc5)c4c3)c2c1` [P-103, 1-(4-fluorophenyl)-6-(5-methoxy-1H-pyrrolo[2,3-b]pyridin-3-yl)benzimidazole], the GI50 lay in the range of 0.0001 to 1 µM.

In the case of `CC(C)(C)n1cnc2ccc(-c3c[nH]c4ncc(-c5ccc(F)c(C#N)c5)nc34)cc21` [P-230, 5-[7-(3-tert-butylbenzimidazol-5-yl)-5H-pyrrolo[2,3-b]pyrazin-2-yl]-2-fluoro-benzonitrile], the GI50 was in the range of 0.0001 to 1 µM.

Take `CC(C)(C)n1cnc2ccc(-c3c[nH]c4ncc(C#Cc5cccc(OC(F)(F)F)c5)nc34)cc21` [P-249, 7-(3-tert-butylbenzimidazol-5-yl)-2-[2-[3-(trifluoromethoxy)phenyl]ethynyl]-5H-pyrrolo[2,3-b]pyrazine]: the GI50 lay within 1 to 10 µM.

With `COc1cc(C(=O)Nc2cnc3[nH]cc(-c4ccc5ncn(C6CCCNC6)c5c4)c3c2)ccn1` (centres unmarked) [P-247, 2-methoxy-N-[3-[3-(3-piperidyl)benzimidazol-5-yl]-1H-pyrrolo[2,3-b]pyridin-5-yl]pyridine-4-carboxamide], the GI50 is 0.0001 to 1 µM.

As for `CC(C)(C)n1cnc2ccc(-c3c[nH]c4ncc(-c5cnn(CC(F)(F)F)c5)nc34)cc21` [P-256, 7-(3-tert-butylbenzimidazol-5-yl)-2-[1-(2,2,2-trifluoroethyl)pyrazol-4-yl]-5H-pyrrolo[2,3-b]pyrazine], the GI50 was 0.0001 to 1 µM.

Turning to `CC(C)(C)n1cnc2ccc(-c3c[nH]c4ncc(-c5cnn(C(F)F)c5)cc34)cc21` [P-251, 1-tert-butyl-6-[5-[1-(difluoromethyl)pyrazol-4-yl]-1H-pyrrolo[2,3-b]pyridin-3-yl]benzimidazole], the GI50 lay in the range of 0.0001 to 1 µM.

Turning to `O=S(=O)(c1cccc(-c2cnc3[nH]cc(-c4ccc5ncn(C6CCCNC6)c5c4)c3n2)c1)N1CCCC1` (centres unmarked) [P-237, 7-[3-(3-piperidyl)benzimidazol-5-yl]-2-(3-pyrrolidin-1-ylsulfonylphenyl)-5H-pyrrolo[2,3-b]pyrazine], the GI50 lay within 0.0001 to 1 µM.

`CC(C)(CO)n1cnc2ccc(-c3c[nH]c4ncc(-c5cccc(NS(C)(=O)=O)c5)nc34)cc21` [P-115, N-[3-[7-[3-(2-hydroxy-1,1-dimethyl-ethyl)benzimidazol-5-yl]-5H-pyrrolo[2,3-b]pyrazin-2-yl]phenyl]methanesulfonamide]: the GI50 fell in the range of 0.0001 to 1 µM.

In the case of `CCCS(=O)(=O)Nc1cccc(-c2cnc3[nH]cc(-c4ccc5ncn(C6CCCNC6)c5c4)c3c2)c1` (centres unmarked) [P-217, N-[3-[3-[3-(3-piperidyl)benzimidazol-5-yl]-1H-pyrrolo[2,3-b]pyridin-5-yl]phenyl]propane-1-sulfonamide], the GI50 fell in the range of 0.0001 to 1 µM.

As to `CC(C)(C)n1cnc2ccc(-c3c[nH]c4ncc(-c5cnn(CC(F)(F)F)c5)cc34)cc21` [P-252, 1-tert-butyl-6-[5-[1-(2,2,2-trifluoroethyl)pyrazol-4-yl]-1H-pyrrolo[2,3-b]pyridin-3-yl]benzimidazole], the GI50 lay in the range of 0.0001 to 1 µM.

For `N#Cc1cc(-c2cnc3[nH]cc(-c4ccc5ncn(C6CCCNC6)c5c4)c3c2)ccc1F` (centres unmarked) [P-208, 2-fluoro-5-[3-[3-(3-piperidyl)benzimidazol-5-yl]-1H-pyrrolo[2,3-b]pyridin-5-yl]benzonitrile], the GI50 fell in the range of 0.0001 to 1 µM.
